Peptide text beside a SMILES is read from it.
Columns and labels:
[1] = biological target: T1, C. maenas CRZR (corazonin receptor) (Carcinus maenas, UniProt A0A2L0WQE5); experiment: Aequorin luminescence Ca2+ mobilization in CHO-K1-Aeq cells transiently expressing CRZR; type: cell-based
T1 sequence (A0A2L0WQE5 1-617): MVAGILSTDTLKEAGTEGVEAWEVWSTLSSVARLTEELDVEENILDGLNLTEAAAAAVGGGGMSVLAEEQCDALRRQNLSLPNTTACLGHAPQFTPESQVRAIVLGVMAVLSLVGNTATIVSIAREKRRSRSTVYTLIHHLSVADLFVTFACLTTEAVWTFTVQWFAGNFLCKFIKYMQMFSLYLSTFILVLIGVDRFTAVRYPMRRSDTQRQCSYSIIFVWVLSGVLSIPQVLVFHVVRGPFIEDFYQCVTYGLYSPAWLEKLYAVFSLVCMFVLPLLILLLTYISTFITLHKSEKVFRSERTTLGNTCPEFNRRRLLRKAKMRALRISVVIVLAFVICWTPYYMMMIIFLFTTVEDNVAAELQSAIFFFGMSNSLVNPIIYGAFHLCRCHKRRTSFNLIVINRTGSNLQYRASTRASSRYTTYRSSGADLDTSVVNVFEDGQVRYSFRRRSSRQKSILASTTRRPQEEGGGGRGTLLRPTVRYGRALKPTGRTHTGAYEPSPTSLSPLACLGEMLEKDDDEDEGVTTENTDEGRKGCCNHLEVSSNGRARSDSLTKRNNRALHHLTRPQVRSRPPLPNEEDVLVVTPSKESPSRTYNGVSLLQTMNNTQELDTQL
Description: Chinese hamster ovary (CHO-K1) cells containing stably expressed apoaequorin (Perkin Elmer, Boston, MA) and either Gα16 or Gq subunit (control cells) were cultured in Dulbecco's Modified Eagle Medium (DMEM) F-12 Nutrient Mixture GlutaMax (Gibco®) supplemented with 10% fetal bovine serum (Gibco®). Cells were maintained in vented T75 flasks at 37°C in 5% CO2.
Cells grown in a monolayer to approximately 60% confluency in T75 flasks were transfected with pcDNA3.1 constructs using FugeneHD (Promega) according to the manufacturer's recommendations. Briefly, transfection medium was prepared by combining 800 μl Opti-MEM® (Gibco) with 10 μg vector and 30 μl Fugene HD in a 2 ml polystyrene tube and incubated for 10 min at room temperature. The transfection reagent was added to 5 ml of fresh culture media and the cells incubated overnight at 37°C in 5% CO2. After 24 h, an additional 10 ml of culture media were added to the flasks and the cells returned to 37°C at 5% CO2 for a further overnight incubation.
On the day of the assay, cells were detached from the culture flask by incubating for 12 min in 5 ml 0.2% EDTA in PBS. The cells were washed with 10 ml DMEM clear DMEM/F-12 containing L-glutamine, 15 mM HEPES and moved to 50 ml centrifuge tubes. Cells were centrifuged for 5 min at 260 g and resuspended to a concentration of 5 × 10^6 cells ml^−1 in 0.2 μm filtered BSA medium (DMEM/F-12 containing L-glutamine, 15 mM HEPES + 0.1% BSA). Coelenterazine h (Invitrogen, Paisley, UK) was added to a concentration of 5 μM and the cells incubated for 4 h in the dark at room temperature whilst gently rocking. The cells were diluted 10-fold and incubated for a further 60 min before use in the assay. Synthetic peptides (GeneCust, Dudelange, Luxembourg) were reconstituted in 30% acetonitrile, dried in small aliquots by vacuum centrifugation and subsequently redissolved in BSA medium. Fifty microliter aliquots were then dispensed into quadruplicate wells of a white 96-well plate (OptiPlate, PerkinElmer). Cell suspensions were gently stirred and injected in 50 μl aliquots into each well using a Mithras LB 940 microplate reader (Berthold Technologies, Bad-Wildbad, Germany) and light emission (Ca^2+ response) recorded for 30 s. Cells were then lysed by injection of 0.3% Triton-X in BSA medium and light emission recorded for a further 10 s to measure total Ca^2+ response. BSA medium was used for blank measurements (6 replicate wells per plate) and mock transfection with empty vectors carried out for negative controls. Data was analyzed using MikroWin v5.18 (Mikrotek Laborsysteme GmbH) and SigmaPlot v.13 (Systat Software, Inc.). Receptor response was normalized against total Ca^2+ response.

[2] = Hemolymph triglyceride levels after peptide injection; type: in vivo, Carcinus maenas; conditions: lipid mobilization bioassay

CC(C)C[C@H](NC(=O)[C@@H]1CCC(=O)N1)C(=O)N[C@@H](CC(N)=O)C(=O)N[C@@H](Cc1ccccc1)C(=O)N[C@@H](CO)C(=O)N1CCC[C@H]1C(=O)NCC(=O)N[C@@H](Cc1c[nH]c2ccccc12)C(N)=O [RPCH] (HELM PEPTIDE1{[Glp].L.N.F.S.P.G.W.[am]}$$$$V2.0)
binding to CRZR at extremely high concentrations ([1]; 0.6–20 μM): some dose-dependent binding
EC50 ([1]; CHO-K1-Aeq cells (without Gα16) transiently expressing CRZR, luminescence response normalized to total Ca2+ response, dose response curves, means of n = 4): > 20 µM
effect on hemolymph diacylglycerol levels [2]: completely without effect
